Measured values as given in US8580920B2, “Peptides useful for skin lightening” (Conopco, Inc., priority 2009, dated 2013).
Read-outs that look alike come from different tables or passages of the source. Bridges are numbered along the chain shown (N, C = ends).

Tested on: human epidermal keratinocytes neonatal (HeKn) and human epidermal melanocytes neonatal darkly pigmented (HeMnDP) co-culture
Conditions: 72 hours, with respect to untreated control
Method: The ability of various materials to act as skin lightening agents was measured using the melanin content assay. The experiments were carried out as per the following procedure:
A 2:1 ratio mix containing 100 000 human epidermal keratinocytes neonatal (HeKn) (neonatal foreskin keratinocytes from Cascade Biologicals) and 50 000 human epidermal melanocytes neonatal darkly pigmented (HeMnDP) (darkly pigmenting cells neonatal foreskin melanocytes from Cascade Biologicals) were seeded per well, in a 24 well cell culture plate, to establish a co-culture system. After overnight incubation, cells were treated with fresh media containing the test actives (untreated or vehicle controls set up in parallel) and incubated for 72 hours after treatment. Then media was removed and replaced with 80 μl of dimethyl sulphoxide (DMSO). The plate was further incubated with DMSO for 1 hour at 65° C., after which the well contents were triturated and the same sample used to assay both for melanin content (read at 450 nm in a plate reader) and protein estimation (regular BiCinchoninic Acid method, kit from Peirce). % reduction in melanin was with respect to untreated control.

With O=c1cc(CO)occ1O [Kojic acid, reference compound] the “% REDUCTION IN MELANIN CONTENT” value (100 μM) was 19 (±1) %.

With “-Gly-Cys-His-Gly-His-Pro-Phe-Ala-Pro-Cys-Ala- [Peptide 2] (H-GCHGHPFAPCA-OH; disulfide 2-10; N-terminus and C-terminus assumed; SMILES C[C@H](NC(=O)[C@@H]1CSSC[C@H](NC(=O)CN)C(=O)N[C@@H](Cc2c[nH]cn2)C(=O)NCC(=O)N[C@@H](Cc2c[nH]cn2)C(=O)N2CCC[C@H]2C(=O)N[C@@H](Cc2ccccc2)C(=O)N[C@@H](C)C(=O)N2CCC[C@H]2C(=O)N1)C(=O)O)” the “% REDUCTION IN MELANIN CONTENT” value (46 μM) was 12 (±10) %.

With “-Gly-Cys-Leu-Ser-Arg-His-Val-Leu-Gln-Cys-Ala- [Peptide 1]” the “% REDUCTION IN MELANIN CONTENT” value (42 μM) was 5 (±2) % and the “% REDUCTION IN MELANIN CONTENT” value (420 μM) was 22 (±3) %.
